Consider 32 compounds from article PMC3199943, “Screening the MayBridge Rule of 3 Fragment Library for Compounds That Interact with the Trypanosoma brucei myo-Inositol-3-Phosphate Synthase and/or Show Trypanocidal Activity” (Molecular Biology International, 2011).

Read-outs that look alike come from different tables or passages of the source.

The target in one test is T1, TbINO1 (Trypanosoma brucei brucei, UniProt Q5QQ46).
T1 sequence (Q5QQ46 1-528): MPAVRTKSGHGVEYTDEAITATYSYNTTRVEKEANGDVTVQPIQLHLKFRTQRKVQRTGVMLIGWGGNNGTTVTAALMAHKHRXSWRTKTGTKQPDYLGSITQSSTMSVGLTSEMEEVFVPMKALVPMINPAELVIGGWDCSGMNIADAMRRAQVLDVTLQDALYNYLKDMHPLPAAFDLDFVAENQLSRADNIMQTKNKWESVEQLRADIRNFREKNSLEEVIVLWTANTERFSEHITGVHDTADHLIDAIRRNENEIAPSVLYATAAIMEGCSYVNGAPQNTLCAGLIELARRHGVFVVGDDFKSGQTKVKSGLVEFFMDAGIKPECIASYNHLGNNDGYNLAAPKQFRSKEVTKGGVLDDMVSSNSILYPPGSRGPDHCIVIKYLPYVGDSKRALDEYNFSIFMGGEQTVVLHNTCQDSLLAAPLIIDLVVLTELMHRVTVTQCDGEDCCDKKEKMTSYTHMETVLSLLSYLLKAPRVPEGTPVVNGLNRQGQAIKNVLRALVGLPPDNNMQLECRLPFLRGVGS
As to the kind of experiment: biochemical. It is filed as binding.

A further test relates to HeLa cells. Briefly: cells. The note with it: for viability at 500 µM: 65 h. In short, it runs like this:
(§1)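 Viability by Alamar Blue (5 h) after ~65 h drug treatment; seeding density 2 × 10^4 cells/well in DMEM supplemented with 10% FCS and 2 mM L-Glutamine.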

A further test relates to A549 cells. As to the kind of experiment: Cytotoxicity against A549 cells, Alamar Blue. It is filed as cell-based. The note with it: Supplementary Table 1, compound 0.5 mM, percentage of controls (n=1); for viability at 500 µM: Homo sapiens, A549, 65 h. In short, it runs like this:
as §1
(Alamar Blue is a resazurin reagent that responds to reducing activity.)

[1] abbreviates: read-out: Tb Ino1 Tm Shift [˚C].
Where [2] appears, read: Homo sapiens, HeLa, read-out: HeLa Cells Alamar Blue.
Setting [3] is: Homo sapiens, HeLa, read-out: HeLa Cells Alamar Blue (% survival).
[4] abbreviates: Supplementary Table 1, compound 1mM, mean ± SD from Boltzman curve fitting, read-out: Tb Ino1 Tm Shift [˚C].

On to `Cc1ccc(O)c(C)n1` [compound 64, 2,6‐dimethylpyridin‐3‐ol], for which, at TbINO1 (setting [1]), the ΔTm at 1000 µM turned out to be 0.13 ± 0.07 °C. The values for the viability at 500 µM in the test with HeLa cells (setting [2]) and with A549 cells were 103 ± 13.2% and 80.6%, respectively.
The matching figures for `COc1ncccc1N` [compound 65, 2‐methoxypyridin‐3‐amine]: 1.46 ± 0.07 °C, 66.6 ± 18.7% and 75.4%.
For the compound `Nc1ccc(CO)cn1` [compound 66, (6‐amino‐3‐pyridinyl)methanol], at TbINO1 (setting [1]), the ΔTm at 1000 µM is 0.24 ± 0.09 °C. For the same compound, the viability at 500 µM is 80.3 ± 9.7% in the test with HeLa cells (setting [2]) and 85.1% with A549 cells.
As for `Cc1nc(C#N)cs1` [compound 67, 2‐methyl‐1,3‐thiazole‐4‐carbonitrile], at TbINO1 (setting [1]), the ΔTm at 1000 µM came out at 0.01 ± 0.07 °C. The results for the viability at 500 µM in the test on HeLa cells (setting [2]) and in the test with A549 cells were 96.1 ± 9.2% and 89.7%, respectively.
The matching figures for `Cc1nn(C)c(C)c1N` [compound 72, 1,3,5‐trimethyl‐1H‐pyrazol‐4‐amine]: 1.19 ± 0.08 °C, 78.5 ± 0.8% and 70.9%.
Turning to `Cc1occc(=O)c1O` [compound 74, 3‐hydroxy‐2‐methyl‐4H‐pyran‐4‐one], the ΔTm at 1000 µM on TbINO1 (setting [1]) stood at 1.13 ± 0.08 °C. The viability at 500 µM came to 107 ± 10.5% with HeLa cells (setting [2]) and 105% with A549 cells.
With `Cc1occc1C(=O)O` [compound 75, 2-methyl-3-furoic acid], the ΔTm at 1000 µM on TbINO1 (read-out: TbIno1 Tm shift [°C]) was 3.89 ± 0.07 °C. In addition, the viability at 500 µM in the test with HeLa cells (setting [2]) is 63.3 ± 5.9%; in the test on HeLa cells (setting [3]) it was 63.3 ± 5.9%; in the test with A549 cells, 110%.
Regarding `Cc1cc(CO)nn1C` [compound 76, (1,5‐dimethyl‐1H‐pyrazol‐3‐yl)methanol], the ΔTm at 1000 µM on TbINO1 (setting [1]) worked out at 0.56 ± 0.08 °C. In addition, the viability at 500 µM in the test on HeLa cells (setting [2]) was determined as 99.6 ± 4.5%; in the test on A549 cells, 100%.
The matching figures for `Cc1nc(CO)c(C)o1` [compound 78, (2,5‐dimethyl‐1,3‐oxazol‐4‐yl)methanol]: 0.13 ± 0.08 °C, 92.7 ± 11.5% and 110%.
Consider `NCCc1cccs1` [compound 81, 2‐(2‐thienyl)ethylamine], for which the ΔTm at 1000 µM on TbINO1 (setting [4]) was determined as 0.09 ± 0.07 °C. Further, the viability at 500 µM turned out to be 117 ± 8.9% with HeLa cells (setting [2]) and 119% in the test with A549 cells.
For the compound `CCCc1nccs1` [compound 82, 2‐propyl‐1,3‐thiazole], the ΔTm at 1000 µM on TbINO1 (setting [1]) worked out at 0.22 ± 0.07 °C. Further, the viability at 500 µM in the test with HeLa cells (setting [2]) worked out at 96.8 ± 11%; in the test with A549 cells, 114%.
The matching figures for `Cc1ccsc1CN` [compound 83, (3‐methyl‐2‐thienyl)methylamine]: 0.43 ± 0.06 °C, 95.4 ± 10% and 124%.
The matching figures for `CCC1CCC(N)CC1` (centres unmarked) [compound 84, 4‐ethylcyclohexanamine]: 0.44 ± 0.06 °C, 90.7 ± 14.2% and 118%.
The matching figures for `NC(=S)c1ccno1` [compound 86, isoxazole‐5‐carbothioamide]: 0.94 ± 0.08 °C, 102 ± 3.4% and 105%.
For the compound `ON=C1CCCCCN1` [compound 87, azepan‐2‐one oxime], the ΔTm at 1000 µM at TbINO1 (setting [1]) is 0.52 ± 0.06 °C. Moreover, the viability at 500 µM in the test with HeLa cells (setting [2]) was found to be 92.3 ± 17.4%; in the test on A549 cells, 115%.
With `Nc1ccc(F)cc1F` [compound 88, 2,4‐difluoroaniline], the ΔTm at 1000 µM on TbINO1 (setting [1]) was 1.11 ± 0.07 °C. The viability at 500 µM in the test with HeLa cells (setting [2]) was found to be 87.6 ± 10.6%; in the test on A549 cells, 132%.
The matching figures for `Nc1cc(F)cc(F)c1` [compound 89, 3,5‐difluoroaniline]: 0.3 ± 0.07 °C, 104 ± 10.5% and 132%.
The matching figures for `O=C(O)C1CCNCC1` [compound 90, piperidine‐4‐carboxylic acid]: 0.5 ± 0.06 °C, 106 ± 2% and 132%.
As for `O=C(O)C1CCCCO1` (centres unmarked) [compound 93, tetrahydropyran‐2‐carboxylic acid], the ΔTm at 1000 µM on TbINO1 (setting [1]) stood at 0.55 ± 0.06 °C. Also, the viability at 500 µM is 97.5 ± 2.4% in the test on HeLa cells (setting [2]) and 107% in the test with A549 cells.
Take `Cc1cccc(C)c1C#N` [compound 94, 2,6‐dimethylbenzonitrile]: at TbINO1 (setting [4]), the ΔTm at 1000 µM was determined as 1.3 ± 0.06 °C. Also, the viability at 500 µM is 96.4 ± 13.9% in the test on HeLa cells (setting [2]) and 114% in the test on A549 cells.
As for `C#Cc1ccc(OC)cc1` [compound 96, 1‐eth‐1‐ynyl‐4‐methoxybenzene], on TbINO1 (setting [1]), the ΔTm at 1000 µM stood at 0.48 ± 0.06 °C. The viability at 500 µM with HeLa cells (setting [2]) is 94 ± 4.9%; in the test on A549 cells, 111%.
As for `Cc1ccc(C#N)c(N)c1` [compound 97, 2-amino-4-methylbenzonitrile], the ΔTm at 1000 µM on TbINO1 (read-out: TbIno1 Tm shift [°C]) was 1.58 ± 0.07 °C. Further, the viability at 500 µM in the test on HeLa cells (setting [2]) was 81.4 ± 7.4%; in the test with HeLa cells (setting [3]), 81.4 ± 7.4%; in the test on A549 cells it was 96.2%.
For the compound `N#CCc1ccc(O)cc1` [compound 98, 2‐(4‐hydroxyphenyl)acetonitrile], at TbINO1 (setting [4]), the ΔTm at 1000 µM was 0.27 ± 0.05 °C. For the same compound, the viability at 500 µM came out at 92.9 ± 6.5% with HeLa cells (setting [2]) and 115% in the test on A549 cells.
In the case of `O=C1Cc2ccccc2N1` [compound 99, indolin-2-one], the ΔTm at 1000 µM at TbINO1 (read-out: TbIno1 Tm shift [°C]) amounted to 2.04 ± 0.07 °C. Further, the viability at 500 µM was determined as 66.6 ± 18.7% in the test with HeLa cells (setting [2]), 66.6 ± 18.7% with HeLa cells (setting [3]) and 229% in the test with A549 cells. Also, the CC50 with HeLa cells (Homo sapiens, HeLa, read-out: HeLa ED50) was greater than 2000 µM.
Turning to `Nc1ccc2occc2c1` [compound 100, 1‐benzofuran‐5‐amine], the ΔTm at 1000 µM on TbINO1 (setting [1]) worked out at 0.78 ± 0.05 °C. The viability at 500 µM with HeLa cells (setting [2]) turned out to be 80.2 ± 12.5%; with A549 cells, 110%.
The matching figures for `Cc1nc(N)ccc1C#N` [compound 102, 6‐amino‐2‐methylnicotinonitrile]: 0.27 ± 0.06 °C, 69.4 ± 12.4% and 76.1%.
Consider `O=C(O)C1NCCS1` (centres unmarked) [compound 103, 1,3-thiazolane-2-carboxylic acid], for which, on TbINO1 (read-out: TbIno1 Tm shift [°C]), the ΔTm at 1000 µM was determined as 2.63 ± 0.08 °C. Besides, the viability at 500 µM with HeLa cells (setting [2]) came out at 103 ± 6.4%; in the test with HeLa cells (setting [3]), 103 ± 6.4%; in the test on A549 cells, 107%.
On to `NC1Cc2ccccc2C1` [compound 104, indan‐2‐amine], for which the ΔTm at 1000 µM at TbINO1 (setting [4]) came out at 0.89 ± 0.05 °C. Moreover, the viability at 500 µM with HeLa cells (setting [2]) amounted to 70 ± 18.5%; in the test on A549 cells it was 123%.
Regarding `COc1ccc(C#N)cn1` [compound 108, 6‐methoxynicotinonitrile], the ΔTm at 1000 µM at TbINO1 (setting [1]) worked out at 0.38 ± 0.07 °C. Also, the viability at 500 µM with HeLa cells (setting [2]) turned out to be 95 ± 10.2%; in the test on A549 cells it was 125%.
As for `Cc1ccc(C#N)c(=O)[nH]1` [compound 109, 6‐methyl‐2‐oxo‐1,2‐dihydropyridine‐3‐carbonitrile], on TbINO1 (Supplementary Table 1, compound 1mM, mean ± SD from Boltzman curve fitting), the “Tb Ino1 Tm Shift [˚C]” value was determined as 0.22 ± 0.06 °C. Moreover, in the test on HeLa cells (Supplementary Table 1, compound 0.5 mM, percentage of controls, mean ± SD (n=3) or SE (n=2)), the “HeLa Cells Alamar Blue” value is 97.4 ± 2 percentage of controls. The “A549 Cells Alamar Blue” value in the test on A549 cells is given as 118.7 percentage of controls.
As to `c1ccc2c(c1)CCOC2` [compound 110, 3,4‐dihydro‐1H‐benzo[c]pyran], the ΔTm at 1000 µM at TbINO1 (setting [1]) turned out to be 0.34 ± 0.06 °C. In addition, the viability at 500 µM turned out to be 88.7 ± 19.2% with HeLa cells (setting [2]) and 114% with A549 cells.
The matching figures for `c1cnc2c(n1)CCCC2` [compound 111, 5,6,7,8‐tetrahydroquinoxaline]: 0.16 ± 0.06 °C, 95.6 ± 0.8% and 96.1%.
